According to patent US4521423A, “7,8,9,10-Tetrahydrobenzo[h]quinolin-9-amine derivatives and compositions and methods for treating depression employing them” (Ayerst, McKenna & Harrison, Ltd., priority 1983, dated 1985):

What was measured:
norepinephrine uptake = test: in vitro [3H]norepinephrine uptake inhibition, rat brain preparation; format: biochemical; conditions: concentration of 1×10^-6 moles
Source text: (§1) For example, the ability of the present compounds to block substantially the uptake of norepinephrine and serotonin, characteristic properties of antidepressants, can be shown in the in vitro test using rat brain preparation as described by M. H. Kannengiesser, P. Hunt and J.-P. Raynaud, Biochem. Pharmacol., 22, 73 (1973); see also E. G. Shaskan and S. H. Snyder, J. Pharmacol. Exptl. Therap., 175, 404 (1970), and J. Glowinski and L. L. Iversen, J. Neurochemistry, 13, 655 (1966).

serotonin uptake = test: in vitro [3H]serotonin uptake inhibition, rat brain preparation; format: biochemical; conditions: concentration of 1×10^-6 moles
Source text: as §1

SMILES: CCCN(CCC)C1CCc2ccc3cccnc3c2C1 (centres unmarked) [7,8,9,10-Tetrahydro-N,N-dipropylbenzo[h]quinolin-9-amine]
- inhibition of [3H]norepinephrine uptake (norepinephrine uptake): 52%
- inhibition of [3H]serotonin uptake (serotonin uptake): 57%
